{"source": "patent US7037656B2", "about": "“Methods and compositions for identifying ligands for nuclear receptors” (priority 2000, dated 2006)", "assay_in_all_cases": "Yeast 6x EcRE-lacZ β-galactosidase transactivation assay", "key": {"[1]": {"target": "T1, Dm ΔN EcR + RXRγ + GRIP1 (Drosophila melanogaster, UniProt P34021)", "T1 construct": "ubiquitin (human, 76 aa) (N, cleaved yes); expressed in transfected cells", "T1 sequence (P34021 221-878 limits assumed, stated change not applied)": "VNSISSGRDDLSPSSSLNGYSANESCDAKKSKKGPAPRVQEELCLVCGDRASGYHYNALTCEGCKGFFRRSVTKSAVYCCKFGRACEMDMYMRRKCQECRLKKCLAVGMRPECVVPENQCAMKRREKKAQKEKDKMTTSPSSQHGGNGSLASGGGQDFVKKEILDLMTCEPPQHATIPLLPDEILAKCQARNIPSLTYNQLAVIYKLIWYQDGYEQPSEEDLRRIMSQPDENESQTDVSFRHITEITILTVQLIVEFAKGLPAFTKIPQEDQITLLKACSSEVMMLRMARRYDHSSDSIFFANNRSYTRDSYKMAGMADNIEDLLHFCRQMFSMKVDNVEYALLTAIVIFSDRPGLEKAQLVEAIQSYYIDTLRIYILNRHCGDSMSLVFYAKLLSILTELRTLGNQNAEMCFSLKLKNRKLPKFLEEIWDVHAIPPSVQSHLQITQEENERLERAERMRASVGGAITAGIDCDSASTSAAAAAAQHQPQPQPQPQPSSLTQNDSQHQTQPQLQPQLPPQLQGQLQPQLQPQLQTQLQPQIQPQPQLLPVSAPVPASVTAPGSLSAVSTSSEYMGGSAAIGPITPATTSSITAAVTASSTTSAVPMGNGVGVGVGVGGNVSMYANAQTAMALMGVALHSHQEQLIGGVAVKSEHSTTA", "T1 sequence (P28705 whole entry partner)": "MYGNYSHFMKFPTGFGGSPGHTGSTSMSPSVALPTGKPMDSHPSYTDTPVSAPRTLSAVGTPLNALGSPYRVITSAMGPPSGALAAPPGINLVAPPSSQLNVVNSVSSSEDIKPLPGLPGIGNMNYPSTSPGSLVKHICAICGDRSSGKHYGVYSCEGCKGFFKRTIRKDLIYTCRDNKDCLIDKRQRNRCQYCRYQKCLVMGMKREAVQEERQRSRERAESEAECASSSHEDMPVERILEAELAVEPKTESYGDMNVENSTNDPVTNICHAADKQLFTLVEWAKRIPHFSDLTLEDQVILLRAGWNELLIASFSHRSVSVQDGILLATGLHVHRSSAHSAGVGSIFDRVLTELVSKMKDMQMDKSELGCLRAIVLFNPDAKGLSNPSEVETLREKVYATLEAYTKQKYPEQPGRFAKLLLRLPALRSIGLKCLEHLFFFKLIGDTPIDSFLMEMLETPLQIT", "T1 sequence (Q61026 322-1121 partner limits assumed)": "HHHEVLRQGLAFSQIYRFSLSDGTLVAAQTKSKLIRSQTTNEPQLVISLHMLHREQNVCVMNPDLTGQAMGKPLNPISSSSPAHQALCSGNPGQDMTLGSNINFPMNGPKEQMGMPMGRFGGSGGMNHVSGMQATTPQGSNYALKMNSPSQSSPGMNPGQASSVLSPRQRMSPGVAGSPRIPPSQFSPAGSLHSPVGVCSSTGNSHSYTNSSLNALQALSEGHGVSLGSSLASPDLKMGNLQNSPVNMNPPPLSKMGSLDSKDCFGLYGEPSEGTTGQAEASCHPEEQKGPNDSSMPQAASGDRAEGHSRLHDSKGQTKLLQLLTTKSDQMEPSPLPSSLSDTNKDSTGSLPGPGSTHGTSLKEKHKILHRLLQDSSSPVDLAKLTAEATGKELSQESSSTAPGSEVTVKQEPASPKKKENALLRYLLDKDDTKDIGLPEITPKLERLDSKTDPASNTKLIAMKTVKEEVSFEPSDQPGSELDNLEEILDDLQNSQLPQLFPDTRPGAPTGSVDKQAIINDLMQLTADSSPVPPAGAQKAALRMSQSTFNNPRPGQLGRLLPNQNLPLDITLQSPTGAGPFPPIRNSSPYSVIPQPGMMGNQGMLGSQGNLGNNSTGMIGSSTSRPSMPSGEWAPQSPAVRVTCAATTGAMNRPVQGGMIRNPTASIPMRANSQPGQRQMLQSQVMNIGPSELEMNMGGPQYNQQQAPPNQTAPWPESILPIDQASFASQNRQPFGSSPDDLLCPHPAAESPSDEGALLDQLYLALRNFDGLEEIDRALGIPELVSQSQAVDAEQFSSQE", "assay_type": "cell-based, Drosophila melanogaster; mouse", "conditions": "RH 5992 10 μM, 4 hours, DMSO control 0.364", "description": "(§1) The human RXR α (Genbank accession number X52773), mouse RXR β (Genbank accession number X66224) or mouse RXR γ (Genebank accession number X66225) subtypes were expressed in yeast-E. coli multicopy 2μ expression plasmids under regulation of CUP1 promoter with the LEU2 selective marker (1).\n(§2) Briefly, yeast cells are cultured in 5 mL of YPD liquid medium overnight at 30° C. The cell culture was diluted 1:20 in YPD media and further grown until cell density reached an O.D of 0.6. at OD600. The cells were pelleted by centrifugation and washed with 10 mL of TE+0.1M lithium acetate. Cells are then resuspended in 10 mL TE+0.1M lithium acetate and incubated at 30° C. for 1 hour. Cells are collected and resuspended in 0.5 mL of TE+ 0.1M lithium acetate. […]\nUsing the transformation method set forth above, yeast were co-transformed with a reporter gene as shown in FIG. 2 and the expression vector encoding the full-length D. melanogaster ecdysone receptor, DmEcR (FIG. 3A) in the presence or absence of the Dm EcR heterodimer partner, DmUSP (FIG. 4A). […] As the N-terminal portion of the Dm EcR receptor is reported to play a role in ligand independent transactivation, an expression vector containing an N-terminal deletion in the EcR was constructed (see FIG. 3B) and assessed in the β-galactosidase assays described above. […]"}, "[2]": {"target": "T2, Aa ΔA/B EcR + Cf ΔA/B USP + GRIP1 (Aedes aegypti, UniProt P49880)", "T2 construct": "ubiquitin (human, 76 aa) (N, cleaved yes); expressed in transfected cells", "T2 sequence (P49880 with tags, fused parts or gaps)": "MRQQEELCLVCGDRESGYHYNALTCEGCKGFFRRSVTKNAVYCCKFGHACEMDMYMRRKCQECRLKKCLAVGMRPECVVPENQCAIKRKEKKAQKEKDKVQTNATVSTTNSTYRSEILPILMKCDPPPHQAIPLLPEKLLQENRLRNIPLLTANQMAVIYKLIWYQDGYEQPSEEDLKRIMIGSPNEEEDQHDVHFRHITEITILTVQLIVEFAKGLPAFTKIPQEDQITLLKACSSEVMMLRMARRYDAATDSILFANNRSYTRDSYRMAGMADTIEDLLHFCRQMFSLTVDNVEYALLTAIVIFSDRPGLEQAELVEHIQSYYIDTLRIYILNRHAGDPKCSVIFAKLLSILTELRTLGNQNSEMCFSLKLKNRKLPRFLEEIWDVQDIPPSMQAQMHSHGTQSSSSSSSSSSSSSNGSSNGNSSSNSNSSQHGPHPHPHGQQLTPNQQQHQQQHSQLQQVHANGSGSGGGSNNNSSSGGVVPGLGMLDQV", "T2 sequence (O76202 with tags, fused parts or gaps partner)": "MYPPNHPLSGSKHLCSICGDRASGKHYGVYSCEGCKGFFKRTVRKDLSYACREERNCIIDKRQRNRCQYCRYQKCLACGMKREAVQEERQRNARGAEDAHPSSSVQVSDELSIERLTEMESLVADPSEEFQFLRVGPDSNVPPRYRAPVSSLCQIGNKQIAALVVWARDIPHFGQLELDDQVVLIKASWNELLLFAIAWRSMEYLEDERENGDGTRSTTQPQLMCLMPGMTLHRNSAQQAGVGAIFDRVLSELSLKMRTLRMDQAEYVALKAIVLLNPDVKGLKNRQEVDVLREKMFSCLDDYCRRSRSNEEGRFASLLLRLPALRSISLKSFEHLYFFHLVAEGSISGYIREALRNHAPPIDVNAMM", "assay_type": "cell-based, Aedes aegypti; Choristoneura fumiferana", "conditions": "RH 5992 10 μM, 4 hours, DMSO control 0.250", "description": "Briefly, yeast cells are cultured in 5 mL of YPD liquid medium overnight at 30° C. The cell culture was diluted 1:20 in YPD media and further grown until cell density reached an O.D of 0.6. at OD600. The cells were pelleted by centrifugation and washed with 10 mL of TE+0.1M lithium acetate. Cells are then resuspended in 10 mL TE+0.1M lithium acetate and incubated at 30° C. for 1 hour. Cells are collected and resuspended in 0.5 mL of TE+ 0.1M lithium acetate. Aliquots of cells (50 μL), were incubated for 15 minutes at 30° C. with 1–2 μg plasmid DNA in the presence of 5 μg of denatured salmon sperm DNA as DNA carrier. In the case of co-transformation, the indicated plasmids were added simultaneously. […]\n(§3) Using the transformation method described above, yeast were co-transformed with a reporter gene as shown in FIG. 2 and the expression vector encoding the full-length Aedes aegypti ecdysone receptor, Aa EcR (FIG. 7A) in the presence or absence of the Aa EcR heterodimer partner, Aa USP (a or b form, FIGS. 8A and 8B respectively). […] As the N-terminal portion of the AaEcR receptor is reported to play a role in ligand independent transactivation, an expression vector containing an N-terminal deletion in the Aa EcR was constructed (see FIG. 7B) and assessed in the β-galactosidase assays described above. […]"}, "[3]": {"target": "T3, Aa ΔA/B EcR + RXRα + GRIP1 (Aedes aegypti, UniProt P49880)", "T3 construct": "ubiquitin (human, 76 aa) (N, cleaved yes); expressed in transfected cells", "T3 sequence (P49880 with tags, fused parts or gaps)": "as the sequence (P49880 with tags, fused parts or gaps) above", "T3 sequence (P19793 whole entry partner)": "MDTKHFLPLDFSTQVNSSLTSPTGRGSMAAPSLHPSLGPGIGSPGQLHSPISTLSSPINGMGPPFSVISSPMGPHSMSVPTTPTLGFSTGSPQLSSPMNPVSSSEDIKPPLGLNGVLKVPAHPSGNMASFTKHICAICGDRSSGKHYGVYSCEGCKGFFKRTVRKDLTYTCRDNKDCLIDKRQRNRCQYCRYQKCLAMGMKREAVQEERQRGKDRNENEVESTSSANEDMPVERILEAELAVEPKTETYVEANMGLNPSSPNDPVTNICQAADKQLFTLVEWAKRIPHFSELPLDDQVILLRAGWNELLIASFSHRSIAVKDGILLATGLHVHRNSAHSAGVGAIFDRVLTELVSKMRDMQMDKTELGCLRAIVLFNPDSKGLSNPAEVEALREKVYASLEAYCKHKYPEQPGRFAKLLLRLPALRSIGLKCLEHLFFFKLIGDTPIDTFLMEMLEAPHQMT", "assay_type": "cell-based, Aedes aegypti; human", "conditions": "RH 5992 10 μM, 4 hours, DMSO control 0.544", "description": "as §1, §2, §3"}}, "data": [{"smiles": "CCc1ccc(C(=O)NN(C(=O)c2cc(C)cc(C)c2)C(C)(C)C)cc1", "note": "[RH 5992, tebufenozide]", "values": [{"measurement": "β-galactosidase activity", "setting": "[1]", "result": 1.283}, {"measurement": "β-galactosidase activity", "setting": "[2]", "result": 3.000}, {"measurement": "β-galactosidase activity", "setting": "[3]", "result": 2.032}]}]}
